This experiment addresses T1, human GPR43 receptor (hGPR43) (Homo sapiens, UniProt O15552).
T1 construct: expressed in transfected cells
T1 sequence (O15552 1-330): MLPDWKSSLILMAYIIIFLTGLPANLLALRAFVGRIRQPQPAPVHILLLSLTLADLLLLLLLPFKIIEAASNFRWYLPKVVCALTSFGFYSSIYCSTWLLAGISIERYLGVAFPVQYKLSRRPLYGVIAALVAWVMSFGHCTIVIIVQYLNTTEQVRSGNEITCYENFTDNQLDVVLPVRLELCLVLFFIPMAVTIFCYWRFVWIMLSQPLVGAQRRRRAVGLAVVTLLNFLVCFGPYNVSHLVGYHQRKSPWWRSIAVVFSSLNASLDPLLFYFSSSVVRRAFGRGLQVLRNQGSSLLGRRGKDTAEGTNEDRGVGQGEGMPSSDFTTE
Briefly: GTPγS binding assay (SPA method). As to conditions: membranes expressing hGPR43; assay performed in the presence of SCFA; read-out: EC50 (nM) in GTPγ35S assay. It counts as biochemical. An excerpt:
The following assay can be used for determination of GPR43 activation. When a GPCR is in its active state, either as a result of ligand binding or constitutive activation, the receptor couples to a G protein and stimulates the release of GDP and subsequent binding of GTP to the G protein. The alpha subunit of the G protein-receptor complex acts as a GTPase and slowly hydrolyses the GTP to GDP, at which point the receptor normally is deactivated. Activated receptors continue to exchange GDP for GTP. […] The assay uses the ability of GPCR to stimulate [^35S]GTPγS binding to membranes expressing the relevant receptors. The assay can, therefore, be used in the direct identification method to screen candidate compounds to endogenous or not endogenous GPCR.
Membrane extracts were prepared from cells expressing the human GPR43 receptor (hGPR43) as follows: the medium was aspirated and the cells were scraped from the plates in Ca^++ and Mg^++-free Phosphate-buffered saline (PBS). The cells were then centrifuged for 3 min at 1500 g and the pellets were resuspended in buffer A (15 mM Tris-HCl pH 7.5, 2 mM MgCl2, 0.3 mM EDTA, 1 mM EGTA) and homogenized in a glass homogenizer. […] Protein content was assayed by the Folin method.
The assay was performed in the presence of SCFA, and was used to determine the activity of the compounds of the invention.
The [^35S]GTPγS assay was incubated in 20 mM HEPES pH7.4, 100 mM NaCl, 10 μg/ml saponin, 30 mM of MgCl2, 10 μM of GDP, 5 μg membrane-expressing hGPR43, 250 μg of wheatgerm agglutinin beads (Amersham, ref: RPNQ001), a range concentration of compounds (from 30 μM to 1 nM) in a final volume of 100 μl for 30 min at room temperature. The SCFA propionate was used at 1 mM final concentration as positive control. The plates were then centrifuged for 10 minutes at 2000 rpm, incubated for 2 hours at room temperature and counted for 1 min in a scintillation counter (TopCount, PerkinElmer).
Background: GTPγS is a poorly hydrolysed GTP analogue; its binding reports G protein activation.
By EC50 is commonly meant the concentration needed to bring the measured effect to its halfway point. With `O=C(O)C1CC=CCC1C(=O)Nc1nc(-c2ccccc2Cl)cs1` (stereo not shown) [Compound 1, 6-(4-(2-chlorophenyl)thiazol-2-ylcarbamoyl)cyclohex-3-enecarboxylic acid], the EC50 turned out to be 109 nM.

For `CN1CCOc2cc(-c3ccccc3-c3csc(N(C(=O)[C@@H](CC(=O)O)CC4CCCC4)C4CC4)n3)cnc21` [Compound 194, (R)-3-(cyclopentylmethyl)-4-(cyclopropyl(4-(2-(4-methyl-3,4-dihydro-2H-pyrido[3,2-b][1,4]oxazin-7-yl)phenyl)thiazol-2-yl)amino)-4-oxobutanoic acid], the EC50 amounted to 30 nM.

In the case of `CN(C(=O)[C@@H](CC(=O)O)Cc1ccccc1)c1nc(-c2ccccc2Cl)c(F)s1` [Compound 60, (R)-3-benzyl-4-((4-(2-chlorophenyl)-5-fluorothiazol-2-yl)(methyl)amino)-4-oxobutanoic acid], the EC50 came out at 95 nM.

As to `CN(C(=O)[C@@H](CC(=O)O)Cc1ccccc1)c1nc(-c2ccccc2-c2cnc3c(c2)CCC(=O)N3C)cs1` [Compound 216, (R)-3-benzyl-4-(methyl(4-(2-(8-methyl-7-oxo-5,6,7,8-tetrahydro-1,8-naphthyridin-3-yl)phenyl)thiazol-2-yl)amino)-4-oxobutanoic acid], the EC50 turned out to be 341 nM.

As for `CN(C(=O)[C@@H](CC(=O)O)Cc1ccccc1)c1nc(-c2ccccc2-c2ccc(Cl)cc2)cs1` [Compound 149, (R)-3-benzyl-4-((4-(4′-chloro-[1,1′-biphenyl]-2-yl)thiazol-2-yl)(methyl)amino)-4-oxobutanoic acid], the EC50 was determined as 225 nM.

Turning to `C[C@@H](c1ccccc1)[C@H](CC(=O)O)C(=O)N(C)c1nc(-c2ccccc2Cl)cs1` [Compound 106, (3S ,4R)-3-((4-(2-chlorophenyl)thiazol-2-yl)(methyl)carbamoyl)-4-phenylpentanoic acid], the EC50 amounted to 216 nM.

In the case of `CN(C(=O)[C@@H](CC(=O)O)Cc1ccccc1)c1nc(-c2ccccc2-c2ccsc2)cs1` [Compound 107, (R)-3-benzyl-4-(methyl(4-(2-(thiophen-3-yl)phenyl)thiazol-2-yl)amino)-4-oxobutanoic acid], the half-maximal effective concentration (EC50) turned out to be 361 nM.

In the case of `CN(C(=O)[C@@H](CC(=O)O)Cc1ccccc1)c1nc(-c2ccccc2Cl)ns1` [Compound 83, (R)-3-benzyl-4-((3-(2-chlorophenyl)-1,2,4-thiadiazol-5-yl)(methyl)amino)-4-oxobutanoic acid], the EC50 was 98 nM.

Take `CN(C(=O)[C@@H](CC(=O)O)Cc1ccccc1)c1nc(-c2cccc(OC(F)F)c2)cs1` [Compound 164, (R)-3-benzyl-4-((4-(3-(difluoromethoxy)phenyl)thiazol-2-yl)(methyl)amino)-4-oxobutanoic acid]: the EC50 was found to be 161 nM.

Take `COc1ncc(-c2ccc(Cl)cc2-c2csc(N(C)C(=O)[C@@H](CC(=O)O)Cc3ccccc3)n2)cc1Cl` [Compound 222, (R)-3-benzyl-4-((4-(5-chloro-2-(5-chloro-6-methoxypyridin-3-yl)phenyl)thiazol-2-yl)(methyl)amino)-4-oxobutanoic acid]: the EC50 is 102 nM.

As to `CN(C(=O)C(CC(=O)O)Cc1cscn1)c1nc(-c2ccccc2Cl)cs1` (stereo not shown) [Compound 114, 4-((4-(2-chlorophenyl)thiazol-2-yl)(methyl)amino)-4-oxo-3-(thiazol-4-ylmethyl)butanoic acid], the EC50 came to 539 nM.

For `CN1CCOc2cc(-c3ccccc3-c3csc(N(C)C(=O)[C@@H](CC(=O)O)Cc4ccccc4)n3)cnc21` [Compound 182, (R)-3-benzyl-4-(methyl(4-(2-(4-methyl-3,4-dihydro-2H-pyrido[3,2-b][1,4]oxazin-7-yl)phenyl)thiazol-2-yl)amino)-4-oxobutanoic acid], the EC50 was 92 nM.

In the case of `CN(C(=O)[C@@H](CC(=O)O)Cc1ccccc1)c1nc(-c2ccccc2-c2cnc3c(ccn3C)c2)cs1` [Compound 217, (R)-3-benzyl-4-(methyl(4-(2-(1-methyl-1H-pyrrolo[2,3-b]pyridin-5-yl)phenyl)thiazol-2-yl)amino)-4-oxobutanoic acid], the EC50 turned out to be 126 nM.

As for `O=C(O)C[C@@H](Cc1ccccc1)C(=O)Nc1cnc(-c2ccccc2Cl)cn1` [Compound 197, (R)-3-benzyl-4-((5-(2-chlorophenyl)pyrazin-2-yl)amino)-4-oxobutanoic acid], the EC50 was 1910 nM.

Turning to `O=C(O)C[C@@H](Cc1ccccc1)C(=O)Nc1cc(-c2cccc(C(F)(F)F)c2)n[nH]1` [Compound 203, (R)-3-benzyl-4-oxo-4-((3-(3-(trifluoromethyl)phenyl)-1H-pyrazol-5-yl)amino)butanoic acid], the EC50 is 1780 nM.

Regarding `CN(C)c1ccc(-c2ccccc2-c2csc(N(C(=O)[C@@H](CC(=O)O)CC3CCCC3)C3CC3)n2)cn1` [Compound 218, (R)-3-(cyclopentylmethyl)-4-(cyclopropyl(4-(2-(6-(dimethylamino)pyridin-3-yl)phenyl)thiazol-2-yl)amino)-4-oxobutanoic acid], the EC50 amounted to 32 nM.

Regarding `CN(C(=O)[C@@H](CC(=O)O)CC1CCCCC1)c1nc(-c2ccccc2Cl)cs1` [Compound 89, (R)-4-((4-(2-chlorophenyl)thiazol-2-yl)(methyl)amino)-3-(cyclohexylmethyl)-4-oxobutanoic acid], the EC50 was found to be 37 nM.

Regarding `COc1ncc(-c2ccc(Cl)cc2-c2csc(N(C(=O)[C@@H](CC(=O)O)CC3CCCC3)C3CC3)n2)cc1Cl` [Compound 223, (R)-4-((4-(5-chloro-2-(5-chloro-6-methoxypyridin-3-yl)phenyl)thiazol-2-yl)(cyclopropyl)amino)-3-(cyclopentylmethyl)-4-oxobutanoic acid], the EC50 came out at 87 nM.

`O=C(O)C[C@@H](Cc1ccccc1)C(=O)Nc1nc(-c2cccc(Cl)c2)cs1` [Compound 12, (R)-3-benzyl-4-(4-(3-chlorophenyl)thiazol-2-ylamino)-4-oxobutanoic acid]: the EC50 was found to be 424 nM.

`O=C(O)C[C@@H](Cc1ccccc1)C(=O)Nc1nc(-c2ccccc2F)cs1` [Compound 4, (R)-3-benzyl-4-(4-(2-fluorophenyl)thiazol-2-ylamino)-4-oxobutanoic acid]: the 50% effective concentration (EC50) came out at 759 nM.

On to `COc1ccc(-c2ccc(Cl)c(-c3csc(N(C)C(=O)[C@@H](CC(=O)O)Cc4ccccc4)n3)c2)cn1` [Compound 177, (R)-3-benzyl-4-((4-(2-chloro-5-(6-methoxypyridin-3-yl)phenyl)thiazol-2-yl)(methyl)amino)-4-oxobutanoic acid], for which the half-maximal effective concentration (EC50) was 127 nM.

Turning to `CC(C)[C@H](CC(=O)O)C(=O)N(C)c1nc(-c2ccccc2Cl)cs1` [Compound 94, (S)-3-((4-(2-chlorophenyl)thiazol-2-yl)(methyl)carbamoyl)-4-methylpentanoic acid], the concentration giving a half-maximal response (EC50) was 200 nM.

For the molecule `CN(C(=O)[C@@H](CC(=O)O)Cc1ccccc1)c1nc(-c2cc(Cl)cc(Cl)c2Cl)cs1` [Compound 175, (R)-3-benzyl-4-(methyl(4-(2,3,5-trichlorophenyl)thiazol-2-yl)amino)-4-oxobutanoic acid], the EC50 came to 57 nM.

Take `C[C@@H](O)CN(C(=O)[C@@H](CC(=O)O)Cc1ccccc1)c1nc(-c2ccccc2Cl)cs1` [Compound 246, (R)-3-benzyl-4-((4-(2-chlorophenyl)thiazol-2-yl)((R)-2-hydroxypropyl)amino)-4-oxobutanoic acid]: the EC50 is 628 nM.

Consider `CN(C(=O)[C@@H](CC(=O)O)Cc1ccccc1)c1nc(-c2ccccc2-c2ccc(N3CCCC3=O)nc2)cs1` [Compound 150, (R)-3-benzyl-4-(methyl(4-(2-(6-(2-oxopyrrolidin-1-yl)pyridin-3-yl)phenyl)thiazol-2-yl)amino)-4-oxobutanoic acid], for which the concentration for a half-maximal effect (EC50) was found to be 353 nM.

Consider `CN(C(=O)C(CC(=O)O)CC1CC1)c1nc(-c2ccccc2Cl)cs1` (stereo not shown) [Compound 113, 4-((4-(2-chlorophenyl)thiazol-2-yl)(methyl)amino)-3-(cyclopropylmethyl)-4-oxobutanoic acid], for which the EC50 is 226 nM.

Consider `O=C(O)C[C@@H](Cc1ccccc1)C(=O)Nc1nc(-c2ccccc2)ns1` [Compound 11, (R)-3-benzyl-4-oxo-4-(3-phenyl-1,2,4-thiadiazol-5-ylamino)butanoic acid], for which the EC50 was found to be 680 nM.

Turning to `CC(C)C[C@H](CC(=O)O)C(=O)Nc1nc(-c2ccccc2Cl)cs1` [Compound 19, (R)-3-(4-(2-chlorophenyl)thiazol-2-ylcarbamoyl)-5-methylhexanoic acid], the EC50 was determined as 322 nM.

The record behind these values is US20110230477A1, “COMPOUNDS, PHARMACEUTICAL COMPOSITION AND METHODS FOR USE IN TREATING METABOLIC DISORDERS” (Euroscreen S.A., priority 2008, published 2011).
